This experiment concerns the target human KAT II (hKAT II) enzyme (Homo sapiens, UniProt Q8N5Z0). Briefly: KAT II Inhibition Spectra Assay. The experiment is classed as biochemical. The method, then: Formation of kynurenic acid (KYNA) is indirectly assessed by a decrease in light absorbance at 370 nm (OD370) as the L-kynurenine (KYN) substrate is converted by the human KAT II (hKAT II) enzyme into KYNA. An inhibitor would therefore inhibit the decrease in OD370.
The protocol was performed by placing the following reagents into a Costar 384 well black plate (30 μL total assay volume/well): • 10 μL of 3× concentrated compound; • 10 μL of 3× concentrated substrate mix (BGG (Sigma G-5009); 3 mM L-Kynurenine in 150 mM Tris Acetate (Sigma K3750); 3 mM α-ketoglutaric acid in 150 mM Tris Acetate (Sigma K2010); and 210 μM pyridoxal 5-phosphate (PLP) in 150 mM Tris Acetate (Sigma 9255)); and • 10 μL of 3× concentrated enzyme (15 nM enzyme in 150 mM Tris Acetate with 0.3% bovine serum).
Plates were sealed and incubated at 37° C. for 15-20 h before reading OD370 on a SpectraMax Plus plate reader. IC50s were generated by comparing the efficacy of compounds across a concentration range to inhibit a reduction in the OD370 value relative to assay wells with DMSO added in place of concentrated compound.

[1] abbreviates: Table 6, hKAT II, decrease in OD370, 37° C., 15-20 h, read-out: KATII IC50.

Where a name gives a salt, the structure may show the parent alone. Read-outs that look alike come from different tables or passages of the source.

human KAT II (hKAT II) enzyme, sequence (Q8N5Z0 30-425): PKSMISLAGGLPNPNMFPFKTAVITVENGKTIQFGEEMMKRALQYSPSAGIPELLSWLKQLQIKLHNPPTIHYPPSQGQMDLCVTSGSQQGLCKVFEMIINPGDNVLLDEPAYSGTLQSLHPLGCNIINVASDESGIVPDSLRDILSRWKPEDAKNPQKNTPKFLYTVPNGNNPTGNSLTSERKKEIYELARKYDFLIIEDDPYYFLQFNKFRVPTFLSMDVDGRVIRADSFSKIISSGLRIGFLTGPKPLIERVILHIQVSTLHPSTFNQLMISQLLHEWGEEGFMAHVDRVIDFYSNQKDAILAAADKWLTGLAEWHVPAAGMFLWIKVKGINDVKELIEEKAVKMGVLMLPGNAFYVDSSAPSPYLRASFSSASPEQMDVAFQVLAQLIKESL

One may read the IC50 as the concentration that inhibits the measured activity by half. As to `N#Cc1cccc(Oc2ccc3c(c2)C[C@H](N)C(=O)N3O)c1` [Example 70, 3-{[(3S)-3-amino-1-hydroxy-2-oxo-1,2,3,4-tetrahydroquinolin-6-yl]oxy}benzonitrile, hydrochloride salt], under setting [1], the IC50 was found to be 0.0246 µM.

Regarding `CN(C)C(=O)ON1C(=O)[C@@H](N)Cc2ccccc21` [Example 73, (3S)-3-amino-1-[(dimethylcarbamoyl)oxy]-3,4-dihydroquinolin-2(1H)-one, hydrochloride salt], half-maximal inhibition (IC50) was put at 1.09 µM.

In the case of `N[C@H]1Cc2cccc(CN3CCOCC3)c2N(O)C1=O` [Example 74, (3S)-3-amino-1-hydroxy-8-(morpholin-4-ylmethyl)-3,4-dihydroquinolin-2(1H)-one, trifluoroacetic acid salt], the IC50 under setting [1] came to 0.151 µM.

As for `COc1cc2c(cc1Cc1ccccc1)C[C@H](N)C(=O)N2O` [Example 75, (3S)-3-amino-6-benzyl-1-hydroxy-7-methoxy-3,4-dihydroquinolin-2(1H)-one, hydrochloride salt], the IC50 under setting [1] stood at 0.0352 µM.

With `CN(Cc1ccc2c(c1)C[C@H](N)C(=O)N2O)c1ccccc1` [Example 76, (3S)-3-amino-1-hydroxy-6-{[methyl(phenyl)amino]methyl}-3,4-dihydroquinolin-2(1H)-one], the IC50 under setting [1] came out at 0.0346 µM.

As for `N[C@H]1Cc2cccc(Oc3ccccc3)c2N(O)C1=O` [Example 77], the IC50 under setting [1] worked out at 0.0801 µM.

For `COc1cccc(Oc2ccc3c(c2)C[C@H](N)C(=O)N3O)c1` [Example 78], the concentration for half-maximal inhibition (IC50) under setting [1] was determined as 0.0173 µM.

Turning to `N[C@H]1Cc2cc(Oc3cccc(C(F)(F)F)c3)cnc2N(O)C1=O` [Example 79], the IC50 under setting [1] was 0.0295 µM.

On to `COc1cccc(Oc2cnc3c(c2)C[C@H](N)C(=O)N3O)c1` [Example 80], for which, under setting [1], the IC50 worked out at 0.0311 µM.

Regarding `N[C@H]1Cc2ccc3c(c2N(O)C1=O)CCO3` [Example 81], under setting [1], the half-maximal inhibitory concentration (IC50) came out at 0.212 µM.

On to `N#Cc1ccccc1Oc1ccc2c(c1)CC(N)C(=O)N2O` (stereo not shown) [Example 82], for which, under setting [1], the IC50 is 0.0411 µM.

Consider `COc1cc2c(cc1Cc1cccc(C(F)(F)F)c1)C[C@H](N)C(=O)N2O` [Example 83], for which, under setting [1], the half-inhibitory concentration (IC50) amounted to 0.0397 µM.

In the case of `NC1Cc2cc(Oc3ccc(O)nc3)ccc2N(O)C1=O` (stereo not shown) [Example 84], the IC50 under setting [1] was 0.0411 µM.

Consider `NC1Cc2cc(Oc3ccc(F)cc3F)ccc2N(O)C1=O` (stereo not shown) [Example 85], for which the 50% inhibitory concentration (IC50) under setting [1] came out at 0.0399 µM.

Take `NC1Cc2cc(F)cc(Oc3ccccc3)c2N(O)C1=O` (stereo not shown) [Example 86]: the IC50 under setting [1] turned out to be 0.065 µM.

Regarding `Cc1ncccc1Oc1ccc2c(c1)CC(N)C(=O)N2O` (stereo not shown) [Example 87], under setting [1], the IC50 came to 0.0409 µM.

For `Cc1ccc(Oc2ccc3c(c2)CC(N)C(=O)N3O)cn1` (stereo not shown) [Example 88], the IC50 under setting [1] stood at 0.0209 µM.

With `NC1Cc2cc(Oc3cc(F)ccc3F)ccc2N(O)C1=O` (stereo not shown) [Example 89], the half-maximal inhibitory concentration (IC50) under setting [1] was determined as 0.0364 µM.

As for `N[C@H]1Cc2cccc(-c3cccnc3C(F)(F)F)c2N(O)C1=O` [Example 90], the 50% inhibitory concentration (IC50) under setting [1] was 0.355 µM.

For `COc1ccc(Oc2ccc3c(c2)CC(N)C(=O)N3O)cc1` (stereo not shown) [Example 91], the IC50 under setting [1] is 0.0362 µM.

Take `NC1Cc2cc(Oc3ccccn3)ccc2N(O)C1=O` (stereo not shown) [Example 92]: the IC50 under setting [1] is 0.0513 µM.

As to `NC1Cc2cc(Oc3cccc(C(F)(F)F)c3)ccc2N(O)C1=O` (stereo not shown) [Example 93], the concentration for half-maximal inhibition (IC50) under setting [1] came out at 0.0356 µM.

For `NC1Cc2cc(Oc3cccc(OC(F)(F)F)c3)ccc2N(O)C1=O` (stereo not shown) [Example 94], the IC50 under setting [1] was 0.0439 µM.

Consider `NC1Cc2cc(Oc3cccnc3)ccc2N(O)C1=O` (stereo not shown) [Example 95], for which, under setting [1], the half-maximal inhibitory concentration (IC50) amounted to 0.0359 µM.

Consider `N[C@H]1Cc2cccc(OCC(F)(F)F)c2N(O)C1=O` [Example 96], for which the 50% inhibitory concentration (IC50) under setting [1] amounted to 0.0496 µM.

Regarding `N[C@H]1Cc2cccc(-c3ccccc3)c2N(O)C1=O` [Example 97], under setting [1], the concentration for half-maximal inhibition (IC50) came out at 0.313 µM.

As for `Cc1ccc(Oc2ccc3c(c2)CC(N)C(=O)N3O)cc1` (stereo not shown) [Example 98], under setting [1], the half-inhibitory concentration (IC50) stood at 0.0319 µM.

`N#Cc1ccc(Oc2ccc3c(c2)CC(N)C(=O)N3O)cc1` (stereo not shown) [Example 99]: the IC50 under setting [1] was determined as 0.0198 µM.

Consider `NC1Cc2cc(Oc3ccncc3)ccc2N(O)C1=O` (stereo not shown) [Example 100], for which the IC50 under setting [1] amounted to 0.103 µM.

Regarding `NC1Cc2cc(Oc3cccc(Cl)c3)ccc2N(O)C1=O` (stereo not shown) [Example 101], under setting [1], the IC50 is 0.0397 µM.

For the compound `NC1Cc2cc(Oc3ccc(C(F)(F)F)cc3)ccc2N(O)C1=O` (stereo not shown) [Example 102], under setting [1], the half-maximal inhibitory concentration (IC50) amounted to 0.0686 µM.

As to `NC1Cc2cc(Oc3ccc(OC(F)(F)F)cc3)ccc2N(O)C1=O` (stereo not shown) [Example 103], under setting [1], the half-inhibitory concentration (IC50) was 0.0775 µM.

With `COc1cc(Cl)c2c(c1)N(O)C(=O)[C@@H](N)C2` [Example 104], the half-inhibitory concentration (IC50) under setting [1] was 0.307 µM.

For `NC1Cc2cc(Oc3ccc(Cl)cc3)ccc2N(O)C1=O` (stereo not shown) [Example 105], the half-inhibitory concentration (IC50) under setting [1] turned out to be 0.0681 µM.

As to `NC1Cc2cc(Oc3cccc(F)c3)ccc2N(O)C1=O` (stereo not shown) [Example 106], the IC50 under setting [1] turned out to be 0.0492 µM.

Regarding `NC1Cc2cc(Oc3ccccc3F)ccc2N(O)C1=O` (stereo not shown) [Example 107], the 50% inhibitory concentration (IC50) under setting [1] is 0.0567 µM.

Turning to `NC1Cc2cc(Oc3ccc(F)cc3)ccc2N(O)C1=O` (stereo not shown) [Example 108], under setting [1], the 50% inhibitory concentration (IC50) came out at 0.0701 µM.

For the compound `N[C@H]1Cc2c(F)ccc(Cl)c2N(O)C1=O` [Example 109], the IC50 under setting [1] is 0.288 µM.

For the compound `CCc1cccc2c1N(O)C(=O)[C@@H](N)C2` [Example 110], the IC50 under setting [1] worked out at 0.983 µM.

As for `N[C@H]1Cc2c(ccc(Oc3ccccc3)c2F)N(O)C1=O` [Example 111], the half-maximal inhibitory concentration (IC50) under setting [1] came to 0.0452 µM.

Take `N[C@H]1Cc2cc(C3CCOCC3)ccc2N(O)C1=O` [Example 112]: under setting [1], the IC50 was 0.0493 µM.

Take `N[C@H]1Cc2cc(Cl)cc(Cl)c2N(O)C1=O` [Example 113]: the concentration for half-maximal inhibition (IC50) under setting [1] was 0.301 µM.

On to `N[C@H]1Cc2c(ccc(F)c2F)N(O)C1=O` [Example 114], for which the 50% inhibitory concentration (IC50) under setting [1] was determined as 0.037 µM.

For the compound `N[C@H]1Cc2cc(Cl)c(Cl)cc2N(O)C1=O` [Example 115], under setting [1], the half-inhibitory concentration (IC50) was 0.0527 µM.

As for `N[C@H]1Cc2c(ccc(C3CC3)c2F)N(O)C1=O` [Example 116], the IC50 under setting [1] worked out at 0.0519 µM.

For `N[C@H]1Cc2c(ccc(Cl)c2F)N(O)C1=O` [Example 117], under setting [1], the IC50 came to 0.0537 µM.

On to `COc1cccc2c1N(O)C(=O)C(N)C2` (stereo not shown) [Example 118], for which, under setting [1], the IC50 was 1.27 µM.

Regarding `N[C@H]1Cc2cccc(C(F)F)c2N(O)C1=O` [Example 119], under setting [1], the half-maximal inhibitory concentration (IC50) turned out to be 0.0411 µM.

For the compound `N[C@H]1Cc2cc(F)cc(F)c2N(O)C1=O` [Example 120], the half-inhibitory concentration (IC50) under setting [1] turned out to be 0.0619 µM.

Regarding `N[C@H]1Cc2cc(Oc3ccc(Cl)cc3)cnc2N(O)C1=O` [Example 124], the IC50 under setting [1] turned out to be 0.0351 µM.

Turning to `COc1cccc(Cc2cc3c(cc2OC)N(O)C(=O)[C@@H](N)C3)c1` [Example 125], under setting [1], the IC50 is 0.0172 µM.

On to `COc1cc2c(cc1Cc1cccc(C#N)c1)C[C@H](N)C(=O)N2O` [Example 126], for which, under setting [1], the concentration for half-maximal inhibition (IC50) was 0.0309 µM.

Regarding `N[C@H]1Cc2cc(Cc3ccccc3)cnc2N(O)C1=O` [Example 127], the IC50 under setting [1] was 0.0282 µM.

Consider `Cc1nc2c(cc1Cc1ccccc1)C[C@H](N)C(=O)N2O` [Example 128], for which the IC50 under setting [1] was found to be 0.0255 µM.

Consider `N#Cc1cccc(Oc2cnc3c(c2)C[C@H](N)C(=O)N3O)c1` [Example 129], for which the IC50 under setting [1] came out at 0.0491 µM.

Take `N[C@H]1Cc2ccncc2N(O)C1=O` [Example 130]: the half-inhibitory concentration (IC50) under setting [1] came out at 1.57 µM.

With `N[C@H]1Cc2cc(-c3cccc(OC(F)(F)F)c3)ccc2N(O)C1=O` [Example 131, (3S)-3-amino-1-hydroxy-6-[3-(trifluoromethoxy)phenyl]-3,4-dihydroquinolin-2(1H)-one, trifluoroacetate salt], the IC50 under setting [1] was determined as 0.246 µM.

Consider `N[C@H]1Cc2cc(-c3ccccc3OC(F)(F)F)ccc2N(O)C1=O` [Example 132, (3S)-3-amino-1-hydroxy-6-[2-(trifluoromethoxy)phenyl]-3,4-dihydroquinolin-2(1H)-one, trifluoroacetate salt], for which, under setting [1], the IC50 came to 0.121 µM.

Regarding `N[C@H]1Cc2cc(-c3cc(F)ccc3F)ccc2N(O)C1=O` [Example 133, (3S)-3-amino-6-(2,5-difluorophenyl)-1-hydroxy-3,4-dihydroquinolin-2(1H)-one, trifluoroacetate salt], the half-maximal inhibitory concentration (IC50) under setting [1] stood at 0.0866 µM.

Turning to `COc1ccc(-c2ccc3c(c2)C[C@H](N)C(=O)N3O)cc1C` [Example 134, (3S)-3-amino-1-hydroxy-6-(4-methoxy-3-methylphenyl)-3,4-dihydroquinolin-2(1H)-one, trifluoroacetate salt], the IC50 under setting [1] turned out to be 0.199 µM.

For `Cc1ccccc1-c1ccc2c(c1)C[C@H](N)C(=O)N2O` [Example 135, (3S)-3-amino-1-hydroxy-6-(2-methylphenyl)-3,4-dihydroquinolin-2(1H)-one, trifluoroacetate salt], under setting [1], the IC50 is 0.116 µM.

On to `N[C@H]1Cc2cc(-c3ccccc3F)ccc2N(O)C1=O` [Example 136, (3S)-3-amino-6-(2-fluorophenyl)-1-hydroxy-3,4-dihydroquinolin-2(1H)-one, trifluoroacetate salt], for which the IC50 under setting [1] came out at 0.129 µM.

On to `COc1ccc(-c2ccc3c(c2)C[C@H](N)C(=O)N3O)c(C)c1` [Example 137, (3S)-3-amino-1-hydroxy-6-(4-methoxy-2-methylphenyl)-3,4-dihydroquinolin-2(1H)-one, trifluoroacetate salt], for which the 50% inhibitory concentration (IC50) under setting [1] is 0.069 µM.

Turning to `N[C@H]1Cc2cc(-c3ccc4c(c3)CCO4)ccc2N(O)C1=O` [Example 138, (3S)-3-amino-6-(2,3-dihydro-1-benzofuran-5-yl)-1-hydroxy-3,4-dihydroquinolin-2(1H)-one, trifluoroacetate salt], the IC50 under setting [1] was 0.156 µM.

The values are drawn from patent US8183238B2, “Bicyclic and tricyclic compounds as KAT II inhibitors” (priority 2009, dated 2012).
